Data as given in article PMC8232895 (Drug Design, Development and Therapy, 2021).
Where two headings read alike, the source gives them in different places.

What was measured:
[1] = ABTS free radical scavenging assay; details: for ABTS radical % Inhibition (Mean±SEM): n 3; for IC50: read-out: ABTS scavenging IC50
[2] = DPPH free radical scavenging assay; details: for DPPH radical % Inhibition (Mean±SEM): n 3; for IC50: read-out: DPPH scavenging IC50
[3] = biological target: T1, butyrylcholinesterase (BChE) (Equus caballus, UniProt P81908); experiment: biochemical; details: read-out: BChE % Inhibition (Mean±SEM)
T1 sequence (P81908 whole entry): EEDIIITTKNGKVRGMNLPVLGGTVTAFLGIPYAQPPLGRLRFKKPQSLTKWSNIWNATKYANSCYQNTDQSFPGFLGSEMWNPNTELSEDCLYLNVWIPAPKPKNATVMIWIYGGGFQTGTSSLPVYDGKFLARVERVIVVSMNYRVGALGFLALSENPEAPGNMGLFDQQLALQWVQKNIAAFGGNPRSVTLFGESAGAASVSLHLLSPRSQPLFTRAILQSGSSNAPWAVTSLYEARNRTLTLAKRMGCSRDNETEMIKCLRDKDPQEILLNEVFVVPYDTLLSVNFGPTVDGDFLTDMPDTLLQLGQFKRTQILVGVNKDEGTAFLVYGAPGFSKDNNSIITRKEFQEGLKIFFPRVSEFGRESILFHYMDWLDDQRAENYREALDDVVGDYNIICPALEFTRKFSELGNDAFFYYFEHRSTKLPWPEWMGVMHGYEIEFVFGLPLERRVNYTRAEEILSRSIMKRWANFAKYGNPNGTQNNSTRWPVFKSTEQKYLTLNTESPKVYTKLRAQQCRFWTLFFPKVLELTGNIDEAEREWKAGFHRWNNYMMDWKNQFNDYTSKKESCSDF

[4] = biological target: T1, butyrylcholinesterase (BChE); details: n 3

**Q.** Which “ABTS scavenging IC50” value [1] does the source give for `O=C1O[C@H]([C@@H](O)CO)C(O)=C1O` [Ascorbic Acid, reference compound] here?
**A.** The value was less than 0.1 µg/mL.

**Q.** What about the “ABTS radical % Inhibition (Mean±SEM)” value ([1]; 15.62 µg/mL) of the same molecule?
**A.** The value was 77.65±0.32%.

**Q.** And the “ABTS radical % Inhibition (Mean±SEM)” value ([1]; 31.25 µg/mL)?
**A.** Its value is 79.29±0.91%.

**Q.** What about the “ABTS radical % Inhibition (Mean±SEM)” value ([1]; 62.5 µg/mL) of the same molecule?
**A.** Its value is 81.75±0.85%.

**Q.** What about the “ABTS radical % Inhibition (Mean±SEM)” value ([1]; 125 µg/mL) of the same molecule?
**A.** The value was 84.68±0.56%.

**Q.** And the “ABTS radical % Inhibition (Mean±SEM)” value ([1]; 250 µg/mL)?
**A.** The value was 85.34±0.47%.

**Q.** What about the “ABTS radical % Inhibition (Mean±SEM)” value ([1]; 500 µg/mL) of the same molecule?
**A.** Its value is 88.25±0.87%.

**Q.** What about the “ABTS radical % Inhibition (Mean±SEM)” value ([1]; 1,000 µg/mL) of the same molecule?
**A.** Its value is 92.36±0.65%.

**Q.** And the IC50 [1]?
**A.** Its IC50 is 0.129 µM.

**Q.** What about the “DPPH scavenging IC50” value [2] of the same molecule?
**A.** Its value is less than 0.1 µg/mL.

**Q.** What about the “DPPH radical % Inhibition (Mean±SEM)” value ([2]; 15.62 µg/mL) of the same molecule?
**A.** Its value is 77.28±0.79%.

**Q.** And the “DPPH radical % Inhibition (Mean±SEM)” value ([2]; 31.25 µg/mL)?
**A.** The value was 82.74±0.23%.

**Q.** And the “DPPH radical % Inhibition (Mean±SEM)” value ([2]; 62.5 µg/mL)?
**A.** The value was 84.44±0.15%.

**Q.** What about the “DPPH radical % Inhibition (Mean±SEM)” value ([2]; 125 µg/mL) of the same molecule?
**A.** The value was 87.25±0.48%.

**Q.** What about the “DPPH radical % Inhibition (Mean±SEM)” value ([2]; 250 µg/mL) of the same molecule?
**A.** Its value is 91.54±0.37%.

**Q.** What about the “DPPH radical % Inhibition (Mean±SEM)” value ([2]; 500 µg/mL) of the same molecule?
**A.** Its value is 93.65±0.54%.

**Q.** What about the “DPPH radical % Inhibition (Mean±SEM)” value ([2]; 1000 µg/mL) of the same molecule?
**A.** Its value is 95.63±0.12%.

**Q.** What about the IC50 [2] of the same molecule?
**A.** Its IC50 is 0.173 µM.

**Q.** For `COc1ccc2c3c1O[C@H]1C[C@@H](O)C=C[C@@]31CCN(C)C2` [Galantamine], which inhibition at 15.62 µg/mL [3] is on record?
**A.** The inhibition at 15.62 µg/mL was 82.76 ± 0.44%.

**Q.** What does the source list for “({3-[(4-Methoxy-2-Nitrophenyl) Carbamoyl] Propanoyl} Zincio 3-[(2-Methoxy-5-Nitrophenyl) Carbamoyl] Propanoate Pyridine [AAZ8]”?
**A.** ABTS scavenging IC50 [1]: 29 µg/mL; ABTS radical % Inhibition (Mean±SEM) ([1]; 15.62 µg/mL): 65.39±0.89%; ABTS radical % Inhibition (Mean±SEM) ([1]; 31.25 µg/mL): 70.28±0.36 %; ABTS radical % Inhibition (Mean±SEM) ([1]; 62.5 µg/mL): 73.62±0.29%; ABTS radical % Inhibition (Mean±SEM) ([1]; 125 µg/mL): 77.45±0.87 %; ABTS radical % Inhibition (Mean±SEM) ([1]; 250 µg/mL): 78.36±0.58%; ABTS radical % Inhibition (Mean±SEM) ([1]; 500 µg/mL): 79.27±0.64 %; ABTS radical % Inhibition (Mean±SEM) ([1]; 1,000 µg/mL): 81.35±0.35%; IC50 [1]: 41 µM; DPPH radical % Inhibition (Mean±SEM) ([2]; 15.62 µg/mL): 69.87±0.59%; DPPH radical % Inhibition (Mean±SEM) ([2]; 31.25 µg/mL): 73.47±0.26 %; DPPH radical % Inhibition (Mean±SEM) ([2]; 62.5 µg/mL): 75.68±0.97%; DPPH radical % Inhibition (Mean±SEM) ([2]; 125 µg/mL): 77.85±0.39 %; DPPH radical % Inhibition (Mean±SEM) ([2]; 250 µg/mL): 79.54±0.63 %; DPPH radical % Inhibition (Mean±SEM) ([2]; 500 µg/mL): 81.69±0.45 %; DPPH radical % Inhibition (Mean±SEM) ([2]; 1000 µg/mL): 83.97±0.12%; IC50 [2]: 29 µM; BChE % Inhibition (Mean±SEM) ([4]; 15.62 µg/mL): 77.93±0.78 %; BChE % Inhibition (Mean±SEM) ([4]; 31.25 µg/mL): 79.31±0.67%; BChE % Inhibition (Mean±SEM) ([4]; 62.5 µg/mL): 80.72±0.58%; BChE % Inhibition (Mean±SEM) ([4]; 125 µg/mL): 81.64±1.04 %; BChE % Inhibition (Mean±SEM) ([4]; 250 µg/mL): 83.54±0.74%; BChE % Inhibition (Mean±SEM) ([4]; 500 µg/mL): 84.13±0.45 %; BChE % Inhibition (Mean±SEM) ([4]; 1,000 µg/mL): 85.17±0.87 %
